Reference: patent US9453842B2, “Inhibition of peroxidase enzymatic activity” (Roche Molecular Systems, Inc., priority 2006, dated 2016)

Experiments:
HRP [1] = target: T1, HRP (Armoracia rusticana, UniProt P00433); test: Inhibition of 1 mU of HRP activity using heavy metal salts and other compounds as stop reagents (ABTS, 96-well plate); details: 1 mU HRP; for Absorbance at 405 nm: higher concentration of Table 1
T1 sequence (P00433 31-338): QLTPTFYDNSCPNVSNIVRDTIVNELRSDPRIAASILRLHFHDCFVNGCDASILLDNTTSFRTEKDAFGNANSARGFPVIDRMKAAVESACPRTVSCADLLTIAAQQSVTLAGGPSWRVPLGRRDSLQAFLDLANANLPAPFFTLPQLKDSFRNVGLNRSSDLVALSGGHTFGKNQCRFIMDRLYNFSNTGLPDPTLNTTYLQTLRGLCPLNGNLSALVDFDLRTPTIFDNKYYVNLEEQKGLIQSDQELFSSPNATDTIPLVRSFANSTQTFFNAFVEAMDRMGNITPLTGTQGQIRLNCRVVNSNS

[2] = tested on: horseradish peroxidase (HRP); test: Inhibition of ABTS turnover catalyzed by a high amount of HRP (sandwich ELISA, CAM-induced Jurkat cell lysate); type: biochemical, horseradish (Armoracia rusticana)
Description: FIG. 2, A and B: inhibition of ABTS turnover catalyzed by a high amount of HRP detection of a high amount of mono- and oligosomes in Jurkat cells; further details are given in Example 1. All other designations are the same as in FIG. 1. Jurkat cells were cultured and subsequently divided into two culture dishes. In one dish the cells were treated with 1 μg/ml CAM (Camptothecin) to induce apoptosis, thereby leading to the formation of mono and oligonucleosomes, the target antigen. After an incubation period of 4 hours the cells of both dishes were harvested separately by centrifugation, lysed by the detergent contained in the Cell Death Detection ELISA Plus (Roche Diagnostics GmbH, Mannheim, Germany; Catalog No. 1920685), and frozen. The mono and oligonucleosomes consisting of DNA and histones H2A, H2B, H3 and H4 were detected in thawed cell homogenate by way of a sandwich ELISA. Antigen was captured with a first monoclonal antibody against histone from the Cell Death Detection ELISA Plus kit. The antibody was coated onto the walls of a 96-well microplate. The detection antibody was a DNA-specific polyclonal antibody conjugated with horseradish peroxidase. Non-induced and CAM-induced Jurkat cells yielded low and high amounts of target antigen, thereby leading to low and high absolute amounts of horseradish peroxidase enzymatic activity in the respective wells. […]

HRP [3] = test: Inhibition of 1 mU of HRP activity using acidified SDS solution as stop reagent (ABTS); type: biochemical, horseradish (Armoracia rusticana); details: acidification of the reaction mixture to pH about 2.5 to 4.2; SDS final concentration between 0.25% and 2.5% weight by volume
Description: A solution of 5% [w/v] sodium dodecyl sulfate acidified with 0.25 M hydrochloric acid was used as a stop reagent to inhibit 1 mU peroxidase enzymatic activity of HRP. […] 100 μl of stop reagent were added.
Another experiment was performed in which two different SDS concentrations, 5% and 0.5% [w/v] in an acidified solution were compared.

[4] = tested on: horseradish peroxidase (HRP); test: Inhibition of ABTS turnover catalyzed by a low amount of HRP (sandwich ELISA, non-induced Jurkat cell lysate); type: biochemical, horseradish (Armoracia rusticana); details: SDS 1% or 5%, high concentrations of oxalic acid or sulfuric acid
Description: FIG. 1, A and B: inhibition of ABTS turnover catalyzed by a low amount of HRP (detection of a low amount of mono- and oligosomes in Jurkat cells; further details are given in Example 1). The ordinate indicates absorbance. Groups of bars represent comparative measurements at time points after the addition of stop reagents as indicated: (‡)—control, ABTS solution incubated without HRP, no stop reagent added; (a) to (k)—ABTS solution incubated with HRP and subsequently mixed with stop reagent as indicated: […] Jurkat cells were cultured and subsequently divided into two culture dishes. In one dish the cells were treated with 1 μg/ml CAM (Camptothecin) to induce apoptosis, thereby leading to the formation of mono and oligonucleosomes, the target antigen. After an incubation period of 4 hours the cells of both dishes were harvested separately by centrifugation, lysed by the detergent contained in the Cell Death Detection ELISA Plus (Roche Diagnostics GmbH, Mannheim, Germany; Catalog No. 1920685), and frozen. The mono and oligonucleosomes consisting of DNA and histones H2A, H2B, H3 and H4 were detected in thawed cell homogenate by way of a sandwich ELISA. Antigen was captured with a first monoclonal antibody against histone from the Cell Death Detection ELISA Plus kit. The antibody was coated onto the walls of a 96-well microplate. The detection antibody was a DNA-specific polyclonal antibody conjugated with horseradish peroxidase. Non-induced and CAM-induced Jurkat cells yielded low and high amounts of target antigen, thereby leading to low and high absolute amounts of horseradish peroxidase enzymatic activity in the respective wells. Into each well of the 96-well microplate an aliquot of 100 μl of ABTS Solution (Roche Diagnostics GmbH, Mannheim, Germany; Roche Applied Science, product no. 11684302001) was added. After an incubation for 8 minutes at room temperature, 100 μl of either distilled water or a stop reagent as indicated in the legend to FIG. 1 was added.

[5] = Table 2b, 6 min, stop reagent added after 8 min incubation
[6] = Table 2b, 9 min, stop reagent added after 8 min
[7] = Table 2b, 15 min, stop reagent added after 8 min
[8] = Table 2b, 30 min, stop reagent added after 8 min
[9] = Table 2b, 45 min, stop reagent added after 8 min
[10] = Table 2b, 60 min, stop reagent added after 8 min
[11] = Table 2b, 180 min, stop reagent added after 8 min

Row | Compound | Absorbance at 405 nm (HRP [1]; [5]) | Absorbance at 405 nm (HRP [1]; [6]) | Absorbance at 405 nm (HRP [1]; [7]) | Absorbance at 405 nm (HRP [1]; [8]) | Absorbance at 405 nm (HRP [1]; [9]) | Absorbance at 405 nm (HRP [1]; [10]) | Absorbance at 405 nm (HRP [1]; [11]) | Decoloration of the dye (HRP [1]; ABTS) | Inhibition of the reaction (FIG. 1) [4] | further results
1 | [Cl][Ni][Cl] [(ix), Nickel (II) chloride] | 1.175 | 2.241 | 2.999 | 3.719 | 3.999 | 3.715 | 3.999 |  |  | 
2 | [Na+].[Na+].[Na+].[O]=[V]([O-])([O-])[O-] [(vii), Sodium orthovanadate] | 1.173 | 0.115 | 0.096 | 0.089 | 0.088 | 0.092 | 0.100 | decoloration of the dye |  | 
3 | [F-].[Na+] [(viii), NaF] | 1.176 | 1.343 | 1.424 | 1.572 | 1.721 | 1.818 | 2.107 |  |  | Inhibition of HRP (in words) (HRP [1]; ABTS): affected inhibition, however only partially
4 | NC(=O)C(=O)[O-].[Na+] [(xi), Sodium Oxamate] | 1.182 | 1.776 | 2.525 | 3.091 | 3.097 | 3.095 | 2.865 |  |  | 
5 | N#C[S-].[K+] [(xii), KSCN] | 1.179 | 1.207 | 1.290 | 1.201 | 1.086 | 0.989 | 0.849 | decoloration of the dye |  | 
6 | [Na+].[OH-] [(xiii), NaOH] |  |  |  |  |  |  |  | decoloration of the dye |  | Absorbance at 405 nm (HRP [1]; Table 2a, 6 min, stop reagent added after 8 min incubation): 1.036; Absorbance at 405 nm (HRP [1]; Table 2a, 9 min, stop reagent added after 8 min): 0.878; Absorbance at 405 nm (HRP [1]; Table 2a, 15 min, stop reagent added after 8 min): 0.027; Absorbance at 405 nm (HRP [1]; Table 2a, 30 min, stop reagent added after 8 min): 0.027; Absorbance at 405 nm (HRP [1]; Table 2a, 45 min, stop reagent added after 8 min): 0.027; Absorbance at 405 nm (HRP [1]; Table 2a, 60 min, stop reagent added after 8 min): 0.027; Absorbance at 405 nm (HRP [1]; Table 2a, 180 min, stop reagent added after 8 min): 0.026
7 | CCCCCCCCCCCCOS(=O)(=O)[O-].[Na+] [SDS, sodium dodecyl sulfate] |  |  |  |  |  |  |  |  | complete inhibition | Inhibition of the high amount of HRP activity (FIG. 2) [2]: not able to inhibit completely; Inhibiting peroxidase enzymatic activity (in words) (HRP [3]): very effective
8 | O=C(O)C(=O)O [oxalic acid] |  |  |  |  |  |  |  |  | complete inhibition | Inhibition of the high amount of HRP activity (FIG. 2) [2]: not able to inhibit completely
9 | O=S(=O)(O)O [sulfuric acid] |  |  |  |  |  |  |  |  | complete inhibition | 
